From ChEMBL document CHEMBL3232931 (J Med Chem, 2014)
Activity calls are given as the source filed them. The calls are words filed in the database; no cut-off is given here.

What was measured:
[1] = molecular target: T1, Ubiquitin carboxyl-terminal hydrolase 21 (Homo sapiens) (UniProt Q9UK80); test: Inhibition of human USP21 using Ub-rhodamine 110 as substrate at 31 uM
T1 sequence (whole entry): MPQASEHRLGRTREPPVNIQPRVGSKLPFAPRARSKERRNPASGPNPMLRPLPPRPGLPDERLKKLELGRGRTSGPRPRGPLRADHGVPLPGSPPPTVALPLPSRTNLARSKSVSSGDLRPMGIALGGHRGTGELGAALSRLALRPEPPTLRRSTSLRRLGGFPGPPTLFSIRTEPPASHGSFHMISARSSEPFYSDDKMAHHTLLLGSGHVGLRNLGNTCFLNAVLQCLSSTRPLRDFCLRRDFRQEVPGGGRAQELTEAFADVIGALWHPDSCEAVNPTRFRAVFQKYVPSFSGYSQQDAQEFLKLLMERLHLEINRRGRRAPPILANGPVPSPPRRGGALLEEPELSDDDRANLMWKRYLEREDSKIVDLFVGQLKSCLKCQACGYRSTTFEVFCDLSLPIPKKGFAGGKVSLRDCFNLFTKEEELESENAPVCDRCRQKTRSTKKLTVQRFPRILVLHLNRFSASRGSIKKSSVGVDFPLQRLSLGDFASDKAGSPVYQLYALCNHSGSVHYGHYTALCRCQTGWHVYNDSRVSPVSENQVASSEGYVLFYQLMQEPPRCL

HEK293 = test: Cytotoxicity against human HEK293 cells assessed as cell viability after 48 hrs by Cell Titer-Glo luminescent assay; format: cell-based; details: hek293, 48 h
[2] = molecular target: T2, Ubiquitin carboxyl-terminal hydrolase 21 (Homo sapiens, UniProt Q9UK80); test: Inhibition of human USP21 using Ub-rhodamine 110 as substrate
T2 sequence (Q9UK80 whole entry): T1 sequence (whole entry)

[3] = molecular target: T3, Cathepsin K (Homo sapiens) (UniProt P43235); test: Inhibition of human cathepsin K using fluorogenic peptide as substrate at 31 uM
T3 sequence (whole entry): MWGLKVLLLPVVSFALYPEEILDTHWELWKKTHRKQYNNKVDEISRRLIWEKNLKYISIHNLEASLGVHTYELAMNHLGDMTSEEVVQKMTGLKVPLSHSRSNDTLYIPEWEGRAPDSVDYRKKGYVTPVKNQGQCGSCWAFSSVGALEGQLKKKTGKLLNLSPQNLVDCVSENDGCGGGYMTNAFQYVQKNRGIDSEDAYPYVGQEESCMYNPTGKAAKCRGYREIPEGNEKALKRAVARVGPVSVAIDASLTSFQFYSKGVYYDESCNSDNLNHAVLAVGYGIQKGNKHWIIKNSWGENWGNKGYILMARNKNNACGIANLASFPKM

[4] = molecular target: Replicase polyprotein 1a (Human coronavirus NL63) (UniProt P0C6U6); test: Inhibition of human coronavirus NL63 PLP2 (amino acids 1565 to 1894) expressed in Escherichia coli BL21 (DE3) cells assessed as reduction of AMC release using Z-RLRGG-AMC as substrate at 100 uM by multimode plate reader analysis
Chain of Replicase polyprotein 1a (Human coronavirus NL63) (P0C6U6 whole entry, the tested form may be a part): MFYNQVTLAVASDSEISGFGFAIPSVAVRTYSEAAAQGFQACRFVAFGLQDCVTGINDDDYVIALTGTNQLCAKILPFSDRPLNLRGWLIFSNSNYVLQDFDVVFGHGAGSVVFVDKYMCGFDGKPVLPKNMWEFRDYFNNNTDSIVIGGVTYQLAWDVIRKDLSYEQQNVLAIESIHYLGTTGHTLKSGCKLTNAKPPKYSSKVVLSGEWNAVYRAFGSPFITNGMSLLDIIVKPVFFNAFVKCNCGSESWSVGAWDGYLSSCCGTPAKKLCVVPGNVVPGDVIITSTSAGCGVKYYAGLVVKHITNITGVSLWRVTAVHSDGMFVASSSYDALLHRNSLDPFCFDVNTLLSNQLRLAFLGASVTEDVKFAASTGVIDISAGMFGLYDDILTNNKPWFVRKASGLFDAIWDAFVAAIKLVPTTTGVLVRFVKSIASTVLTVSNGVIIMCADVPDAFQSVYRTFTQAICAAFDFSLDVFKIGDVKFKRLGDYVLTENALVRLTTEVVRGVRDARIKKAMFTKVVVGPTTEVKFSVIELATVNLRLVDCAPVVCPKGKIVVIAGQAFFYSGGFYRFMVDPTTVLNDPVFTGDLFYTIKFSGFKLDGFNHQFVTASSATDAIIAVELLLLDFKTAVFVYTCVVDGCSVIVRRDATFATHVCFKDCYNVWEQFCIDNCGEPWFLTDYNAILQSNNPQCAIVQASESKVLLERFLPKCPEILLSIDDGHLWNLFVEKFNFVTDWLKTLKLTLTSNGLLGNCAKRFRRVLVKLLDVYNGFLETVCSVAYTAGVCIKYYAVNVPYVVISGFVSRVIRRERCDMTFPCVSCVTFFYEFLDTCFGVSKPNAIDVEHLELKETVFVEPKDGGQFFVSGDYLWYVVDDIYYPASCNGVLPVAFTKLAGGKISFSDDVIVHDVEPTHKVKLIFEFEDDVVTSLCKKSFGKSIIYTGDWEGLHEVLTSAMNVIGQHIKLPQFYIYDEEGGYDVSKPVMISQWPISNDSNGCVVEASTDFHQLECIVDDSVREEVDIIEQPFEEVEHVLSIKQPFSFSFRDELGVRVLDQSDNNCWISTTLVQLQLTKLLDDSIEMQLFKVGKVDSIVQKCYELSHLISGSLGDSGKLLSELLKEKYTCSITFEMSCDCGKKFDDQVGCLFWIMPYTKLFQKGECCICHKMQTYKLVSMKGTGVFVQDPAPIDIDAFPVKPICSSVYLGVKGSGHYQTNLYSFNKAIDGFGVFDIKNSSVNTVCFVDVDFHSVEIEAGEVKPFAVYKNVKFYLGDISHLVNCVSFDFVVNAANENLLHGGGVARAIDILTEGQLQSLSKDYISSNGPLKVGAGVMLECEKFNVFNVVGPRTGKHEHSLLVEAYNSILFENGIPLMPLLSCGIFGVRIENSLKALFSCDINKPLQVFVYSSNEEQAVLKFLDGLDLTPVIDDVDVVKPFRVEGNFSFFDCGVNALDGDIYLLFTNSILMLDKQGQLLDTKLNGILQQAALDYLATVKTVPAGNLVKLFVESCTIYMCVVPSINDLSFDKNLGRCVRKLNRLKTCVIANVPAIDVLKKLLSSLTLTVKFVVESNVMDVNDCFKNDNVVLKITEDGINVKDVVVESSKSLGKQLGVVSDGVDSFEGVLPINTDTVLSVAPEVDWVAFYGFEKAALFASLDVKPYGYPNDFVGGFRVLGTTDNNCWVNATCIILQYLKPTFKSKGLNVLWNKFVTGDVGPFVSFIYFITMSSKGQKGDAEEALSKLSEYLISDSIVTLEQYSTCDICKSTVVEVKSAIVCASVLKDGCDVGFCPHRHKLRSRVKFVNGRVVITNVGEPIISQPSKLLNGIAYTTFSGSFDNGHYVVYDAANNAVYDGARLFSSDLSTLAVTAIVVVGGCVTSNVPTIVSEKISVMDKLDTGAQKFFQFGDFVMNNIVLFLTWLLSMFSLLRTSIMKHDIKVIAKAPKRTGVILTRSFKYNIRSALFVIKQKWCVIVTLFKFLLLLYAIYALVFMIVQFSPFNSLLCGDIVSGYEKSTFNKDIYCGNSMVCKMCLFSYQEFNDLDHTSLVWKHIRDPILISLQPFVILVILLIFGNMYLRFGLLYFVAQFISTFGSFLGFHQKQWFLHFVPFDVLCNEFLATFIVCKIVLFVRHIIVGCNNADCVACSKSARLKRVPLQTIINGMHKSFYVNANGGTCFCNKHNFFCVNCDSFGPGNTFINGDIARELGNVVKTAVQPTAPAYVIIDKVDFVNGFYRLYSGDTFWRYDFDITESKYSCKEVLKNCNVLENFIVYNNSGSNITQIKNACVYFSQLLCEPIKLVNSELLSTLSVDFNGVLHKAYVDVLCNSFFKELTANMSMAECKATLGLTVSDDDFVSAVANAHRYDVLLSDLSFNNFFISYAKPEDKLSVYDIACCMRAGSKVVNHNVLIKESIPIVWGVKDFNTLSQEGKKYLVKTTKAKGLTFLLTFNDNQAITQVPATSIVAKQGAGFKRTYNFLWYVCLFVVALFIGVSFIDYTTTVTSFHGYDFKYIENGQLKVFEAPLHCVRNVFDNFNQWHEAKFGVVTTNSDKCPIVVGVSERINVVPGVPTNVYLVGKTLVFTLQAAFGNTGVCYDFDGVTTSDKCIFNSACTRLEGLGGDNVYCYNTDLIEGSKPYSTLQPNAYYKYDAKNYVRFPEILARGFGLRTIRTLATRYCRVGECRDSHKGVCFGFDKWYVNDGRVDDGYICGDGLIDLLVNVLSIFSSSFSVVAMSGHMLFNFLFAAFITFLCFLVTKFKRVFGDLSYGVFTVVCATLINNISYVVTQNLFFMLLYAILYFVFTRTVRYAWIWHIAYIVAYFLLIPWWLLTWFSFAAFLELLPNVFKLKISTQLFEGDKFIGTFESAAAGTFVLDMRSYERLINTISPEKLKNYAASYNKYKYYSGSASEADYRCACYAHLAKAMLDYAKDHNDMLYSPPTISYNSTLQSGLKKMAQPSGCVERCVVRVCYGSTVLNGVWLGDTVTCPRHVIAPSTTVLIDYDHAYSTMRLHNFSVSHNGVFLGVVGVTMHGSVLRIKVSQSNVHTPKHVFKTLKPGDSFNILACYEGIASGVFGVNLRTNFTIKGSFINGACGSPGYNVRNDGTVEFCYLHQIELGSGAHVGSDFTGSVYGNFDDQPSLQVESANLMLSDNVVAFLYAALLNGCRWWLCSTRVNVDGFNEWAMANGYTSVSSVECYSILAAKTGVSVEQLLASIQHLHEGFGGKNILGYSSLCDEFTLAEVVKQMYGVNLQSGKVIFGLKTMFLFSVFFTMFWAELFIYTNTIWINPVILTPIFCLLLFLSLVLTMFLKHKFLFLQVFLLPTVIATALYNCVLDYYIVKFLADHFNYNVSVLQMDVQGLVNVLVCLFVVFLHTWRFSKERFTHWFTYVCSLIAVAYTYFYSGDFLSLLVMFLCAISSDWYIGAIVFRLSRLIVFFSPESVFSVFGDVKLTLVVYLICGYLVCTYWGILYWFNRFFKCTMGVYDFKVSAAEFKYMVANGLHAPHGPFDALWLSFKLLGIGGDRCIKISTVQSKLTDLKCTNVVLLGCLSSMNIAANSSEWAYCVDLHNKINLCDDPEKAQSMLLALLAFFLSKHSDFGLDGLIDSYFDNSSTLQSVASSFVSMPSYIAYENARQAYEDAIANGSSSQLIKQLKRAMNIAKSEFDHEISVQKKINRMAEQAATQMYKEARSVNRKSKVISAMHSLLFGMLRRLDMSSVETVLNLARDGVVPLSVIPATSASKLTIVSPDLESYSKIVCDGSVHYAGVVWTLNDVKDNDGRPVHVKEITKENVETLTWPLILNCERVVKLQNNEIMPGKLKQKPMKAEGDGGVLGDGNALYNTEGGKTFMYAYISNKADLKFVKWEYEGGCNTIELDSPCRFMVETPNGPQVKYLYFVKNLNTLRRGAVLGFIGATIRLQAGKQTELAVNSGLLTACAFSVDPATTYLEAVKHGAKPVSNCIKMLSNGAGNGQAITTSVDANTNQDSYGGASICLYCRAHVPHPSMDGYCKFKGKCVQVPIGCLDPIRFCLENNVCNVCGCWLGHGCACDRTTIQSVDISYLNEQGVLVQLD

[5] = molecular target: Ubiquitin carboxyl-terminal hydrolase 7 (Homo sapiens, UniProt Q93009); test: Inhibition of human USP7 using Ub-rhodamine 110 as substrate at 31 uM
Chain of Ubiquitin carboxyl-terminal hydrolase 7 (Q93009 whole entry, looked up, the tested form may be a part): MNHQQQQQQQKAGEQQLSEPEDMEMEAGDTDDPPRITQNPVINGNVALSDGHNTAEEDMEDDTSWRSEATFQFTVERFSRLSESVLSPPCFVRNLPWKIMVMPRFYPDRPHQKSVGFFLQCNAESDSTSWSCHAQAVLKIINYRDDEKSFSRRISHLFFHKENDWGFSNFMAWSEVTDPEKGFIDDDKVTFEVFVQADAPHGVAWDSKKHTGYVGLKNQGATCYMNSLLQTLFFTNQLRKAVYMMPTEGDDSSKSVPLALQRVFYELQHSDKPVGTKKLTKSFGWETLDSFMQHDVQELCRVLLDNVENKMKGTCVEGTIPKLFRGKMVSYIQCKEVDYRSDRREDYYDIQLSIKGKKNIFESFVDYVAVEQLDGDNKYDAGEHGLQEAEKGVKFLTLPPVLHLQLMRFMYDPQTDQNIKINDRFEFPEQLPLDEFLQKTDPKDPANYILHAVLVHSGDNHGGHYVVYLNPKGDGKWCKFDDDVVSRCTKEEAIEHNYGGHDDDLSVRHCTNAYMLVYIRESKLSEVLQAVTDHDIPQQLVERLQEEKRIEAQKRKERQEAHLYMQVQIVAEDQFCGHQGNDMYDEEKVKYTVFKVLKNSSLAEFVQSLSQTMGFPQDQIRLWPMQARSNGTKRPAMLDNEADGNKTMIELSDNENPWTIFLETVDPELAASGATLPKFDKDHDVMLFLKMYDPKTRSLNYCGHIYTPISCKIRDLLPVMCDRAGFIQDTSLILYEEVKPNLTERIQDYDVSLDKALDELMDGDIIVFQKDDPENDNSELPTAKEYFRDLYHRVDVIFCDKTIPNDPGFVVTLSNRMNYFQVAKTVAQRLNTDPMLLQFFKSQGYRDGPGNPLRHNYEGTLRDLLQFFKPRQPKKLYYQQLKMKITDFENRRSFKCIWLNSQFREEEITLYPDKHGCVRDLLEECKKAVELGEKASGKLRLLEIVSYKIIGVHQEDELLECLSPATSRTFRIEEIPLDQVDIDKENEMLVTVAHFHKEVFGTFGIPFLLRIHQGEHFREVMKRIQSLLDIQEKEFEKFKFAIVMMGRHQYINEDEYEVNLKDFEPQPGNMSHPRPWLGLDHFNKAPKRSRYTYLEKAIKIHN

BL21-DE3 [6] = test: (§1) Inhibition of SARS coronavirus papain-like protease (amino acids 1541 to 1855) expressed in Escherichia coli BL21 (DE3) cells assessed as decrease in AMC release using Z-RLRGG-AMC as substrate by multimode plate reader analysis; details: Severe acute respiratory syndrome-related coronavirus
[7] = as §1; set-up: species or system Severe acute respiratory syndrome-related coronavirus
[8] = molecular target: T4, Sentrin-specific protease 8 (Homo sapiens) (UniProt Q96LD8); test: Inhibition of human DEN1 using Nedd8-EKL as substrate at 31 uM
T4 sequence (whole entry): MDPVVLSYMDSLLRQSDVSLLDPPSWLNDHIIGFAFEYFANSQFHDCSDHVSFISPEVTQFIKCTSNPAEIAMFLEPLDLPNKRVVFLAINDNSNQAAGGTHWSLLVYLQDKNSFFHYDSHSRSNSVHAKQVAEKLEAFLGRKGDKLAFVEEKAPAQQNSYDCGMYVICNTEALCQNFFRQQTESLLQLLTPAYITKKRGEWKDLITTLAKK

[9] = Cytotoxicity against african green monkey Vero E6 cells assessed as cell viability after 48 hrs by Cell Titer-Glo luminescent assay; format: cell-based; details: chlorocebus sabaeus
[10] = molecular target: Ubiquitin carboxyl-terminal hydrolase 20 (Homo sapiens, UniProt Q9Y2K6); test: Inhibition of human USP20 using Ub-rhodamine 110 as substrate at 31 uM
[11] = molecular target: T5, Ubiquitin carboxyl-terminal hydrolase 2 (Homo sapiens) (UniProt O75604); test: Inhibition of human USP2 using Ub-rhodamine 110 as substrate at 31 uM
T5 sequence (whole entry): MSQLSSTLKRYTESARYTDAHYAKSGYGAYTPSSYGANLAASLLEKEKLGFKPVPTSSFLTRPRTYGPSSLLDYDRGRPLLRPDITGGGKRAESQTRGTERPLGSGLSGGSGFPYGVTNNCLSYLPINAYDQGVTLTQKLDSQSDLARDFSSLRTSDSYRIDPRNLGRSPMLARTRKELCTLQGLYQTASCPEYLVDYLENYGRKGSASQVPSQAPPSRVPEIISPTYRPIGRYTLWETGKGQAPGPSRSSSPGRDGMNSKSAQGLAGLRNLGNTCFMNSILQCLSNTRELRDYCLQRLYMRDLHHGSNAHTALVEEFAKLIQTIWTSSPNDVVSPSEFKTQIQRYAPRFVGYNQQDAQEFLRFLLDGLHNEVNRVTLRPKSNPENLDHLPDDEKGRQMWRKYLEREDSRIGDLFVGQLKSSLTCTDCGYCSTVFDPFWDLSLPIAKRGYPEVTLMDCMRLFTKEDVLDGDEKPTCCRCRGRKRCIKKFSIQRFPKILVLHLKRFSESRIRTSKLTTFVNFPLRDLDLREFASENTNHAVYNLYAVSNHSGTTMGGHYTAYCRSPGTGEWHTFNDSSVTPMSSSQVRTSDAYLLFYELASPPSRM

BL21-DE3 [12] = test: Inhibition of SARS coronavirus papain-like protease (amino acids 1541 to 1855) expressed in Escherichia coli BL21 (DE3) cells assessed as decrease in AMC release using Z-RLRGG-AMC as substrate by serum shift assay based multimode plate reader analysis in presence of 5 to 20% human serum albumin; details: Severe acute respiratory syndrome-related coronavirus
SARS-CoV = test: Antiviral activity against SARS coronavirus infected in african green monkey Vero E6 cells assessed as cell viability after 48 hrs by Cell Titer-Glo luminescent assay; format: functional, organism-based; details: Severe acute respiratory syndrome-related coronavirus
Cathepsin K = molecular target: T6, Cathepsin K (Homo sapiens, UniProt P43235); test: Inhibition of human cathepsin K using fluorogenic peptide as substrate
T6 sequence (P43235 whole entry): T3 sequence (whole entry)

Row | SMILES | inhibition [1] [%] | CC50 (HEK293) [µM] | IC50 [2] [µM] | inhibition [3] [%] | inhibition [4] [%] | inhibition [5] [%] | Imax (BL21-DE3 [6]) [%] | IC50 [7] [µM] | inhibition [8] [%] | CC50 [9] [µM] | inhibition [10] [%] | inhibition [11] [%] | inhibition (BL21-DE3 [12]) | EC50 (SARS-CoV) [µM] | IC50 (Cathepsin K)
1 | C[C@H](c1cccc2ccccc12)N1CCC(C(=O)NCc2ccc3c(c2)OCO3)CC1 | 15 | > 100 | > 31 | < 10 | > 30 | < 10 | 99 | 0.67 | < 10 | > 100 | < 10 | < 10 | Active | 12.8 | Not Active
2 | CC(=O)Nc1cccc(CNC(=O)C2CCN([C@H](C)c3cccc4ccccc34)CC2)c1 | 15 | 68 | > 31 | < 10 | > 30 | 10 | 100 | 0.39 | < 10 | > 100 | 10 | 10 | Active | 8.3 | Not Active
3 | C[C@H](c1cccc2ccccc12)N1CCC(C(=O)NCc2ccc(F)cc2)CC1 | 15 | 73 | > 31 | < 10 |  | < 10 |  | 0.49 | < 10 | > 100 | 10 | < 10 | Active | 11.6 | Not Active
4 | C[C@H](c1cccc2ccccc12)N1CCC(C(=O)NCc2cccc(F)c2)CC1 | 15 | 73 | > 31 | < 10 | > 30 | < 10 | 100 | 0.15 | < 10 | > 100 | 10 | < 10 | Active | 5.4 | Not Active
